Values joined by “and” are separate entries in the source; they are usually repeats but may differ in a detail not shown here. Equal values may be shown once. Read-outs that look alike come from different tables or passages of the source.
What was measured:
[1] = humans; 24 IU OT (not labelled) intranasally; 75 minutes post-administration; radioimmunoassay; ref Striepens et al., Sci Rep 2013; cited from earlier work
Experimental: (§1) page 8: 4. It is surprising that no CSF d5 OT was detected at 60 or 120 minutes in CSF after IN administration. […] In our previous study (Lee et al., Mol Psychiatry 2018), after IN administration, CSF d5OT concentration at 60 minutes was quantified in 4 monkeys as follows: 11.28, 15.99, 67.65 and 221.62 pg/ml. In this previous study, the limit of quantification (LOQ) for d5OT was 10 pg/ml. The LOQ of d5OT in the present study was 100 pg/ml and the method dete ...

[2] = Plasma concentration of d5OT by LC-MS/MS after IN or IV d5OT; assay type: in vivo, rhesus macaques (Macaca mulatta); settings: for level at 1 h: rhesus monkey, plasma, 60 min, present study
Experimental: The six monkeys were dosed once a week, for 4 consecutive weeks, with each DOSE–ROUTE condition of d5OT (40 IU IN, 40 IU IV, 80 IU IN, or 80 IU IV). Each DOSE–ROUTE condition was assigned using a Latin square randomization (Table 4). Sessions were separated by at least 6 days. During each session, CSF (750 µl) and blood (5 ml) samples were drawn immediately prior to (T = 0) and following (T = 60 and 120 min) each administration of d5OT.
Monkeys were divided into three groups, each with two monkeys; each group received the following in a terminal study at the 5th week: Group 1 (Monkeys ID# 1 and ID# 5) received 40 IU of d5OT IN, Group 2 received 80 IU of d5OT IN (Monkeys ID# 2 and ID# 4) and Group 3 received 80 IU of d5OT IV (Monkeys ID# 3 and ID# 6). Animals were perfused on average, 140 ± 7 (mean ± SD) min after d5OT administration (range = 135–149 min) (Table 4). Plasma and CSF were drawn just before administration of d5OT, at the midpoint between d5OT administration and perfusion (~60 min post-d5OT administration), and just before perfusion.
Chemicals: An unlabeled standard for d0OT and deuterated standard for d5OT were purchased from Sigma-Aldrich (St. Louis, MO); d10OT was purchased for use as an internal standard through a custom order from Cayman Chemical (Ann Arbor, MI). All other reagents were commercially available, and we purchased LC or MS grade chemicals when available. Plasma and CSF sample preparation for LC–MS/MS analysis. CSF and plasma samples were collected as described above. […]
Solid-phase extraction (SPE) columns (Strata-X-Drug B, 60 mg/6 ml, Phenomenex, Torrance, CA) were conditioned prior to use by adding 2 ml of methanol, followed by 2 ml of water, and 2 ml of 0.2 M ammonium acetate (pH 3.0) in water; each was allowed to flow through by gravity before the next was added. […] After a 15 min incubation at 4 °C, plates were filtered into microtiter plates (Shimadzu, Kyoto, Japan) using a positive pressure manifold (8 min at 5 psi, followed by 15 s at 15 psi; Biotage, Uppsala, Sweden), and analyzed. […]

[3] = LOQ 10 pg/ml, cited from earlier work
Experimental: as §1, with “Further, at 60 min in the previous study, the CSF concentrations of d5OT after IN delivery of 80 IU were highly variable (11, 16, 67, and 221 pg/ml), and would have been detectable in only two of the monkeys using the a ... || page” for “page”

Row | Structure (SMILES) | CSF OT concentration [1] | Concentrations of d5OT in the plasma ([2]; after 40 IU IN, all concentrations, LOQ 100 pg/ml) | level at 1 h ([2]; 80 IU IN condition, read-out: Plasma d5OT) [ng/mL] | level at 1 h ([2]; IV condition, read-out: Mean plasma concentration of d5OT) [ng/mL] | CSF concentrations of d5OT ([3]; 60 min after IN delivery of 80 IU, individual monkeys, previous study) | CSF d5OT concentration ([3]; 60 minutes after IN administration, 4 individual monkeys, ref Lee et al., Mol Psychiatry 2018)
1 | CC[C@H](C)[C@@H]1NC(=O)[C@H](Cc2ccc(O)cc2)NC(=O)[C@@H](N)CSSC[C@@H](C(=O)N2CCC[C@H]2C(=O)N[C@@H](CC(C)C)C(=O)NCC(N)=O)NC(=O)[C@H](CC(N)=O)NC(=O)[C@H](CCC(N)=O)NC1=O [OT, oxytocin] | approximately 30 pg/ml |  |  |  |  | 
2 | CC[C@H](C)[C@@H]1NC(=O)[C@H](Cc2ccc(O)cc2)NC(=O)[C@@H](N)CSSC[C@@H](C(=O)N2CCC[C@H]2C(=O)N[C@@H](CC(C)C)C(=O)NCC(N)=O)NC(=O)[C@H](CC(N)=O)NC(=O)[C@H](CCC(N)=O)NC1=O [d5OT] |  | below the level of quantification | 0.284 ± 0.288 | 1.99 ± 0.476 | 11 pg/mL and 16 pg/mL and 67 pg/mL and 221 pg/mL | 11.28 pg/mL and 15.99 pg/mL and 67.65 pg/mL and 221.62 pg/mL

Source: publication PMC7270110, “Labeled oxytocin administered via the intranasal route reaches the brain in rhesus macaques” (Nature Communications, 2020)
